Data taken from patent publication US4705799A, “Aminomethyl oxooxazolidinyl benzenes useful as antibacterial agents” (E. I. Du Pont de Nemours and Company, priority 1985, dated 1987).
Values after ≈ are worked out from the molar mass of the structure shown.

What was measured:
Escherichia coli [1] = assay: In vivo efficacy of orally administered compounds in mouse intraperitoneal infections; conditions: mouse i.p. Escherichia coli infection, oral, dosed at infection and 4 h post-infection, 7 days; for ED50: 168 h, read-out: ED50 (50 percent effective dose)
Procedure: (§1) Determinations of in vivo efficacy are performed by inoculating mice intraperitoneally with cultures of the infecting organism diluted to produce 90-100% mortality in control animals within twenty-four hours. The diluents used were trypticase soy broth for E. coli and 5% aqueous hog gastric mucin for Staphylococcus aureus infections. The compounds are dissolved or suspended in 0.25% aqueous Methocel® (Methocel®: Hydroxypropyl Methylcellulose E15 Premium, Dow Chemical Company) for oral administration or sterile distilled water containing 5% dimethylsulfoxide (Fisher Scientific Company, Fairlawn, N.J.) for subcutaneous administration. The mice are dosed at the time of infection and again at four hours post-infection. Mortality is recorded daily until test termination seven days post infection and the 50 percent effective dose, ED50, is calculated by the Reed-Muench method (Reed, L. G. and Muench, H., "A simple method of estimating fifty percent end points," American Journal of Hygiene, 27, 493-497 (1938).

Staphylococcus aureus [2] = assay: as above; conditions: mouse i.p. Staphylococcus aureus infection, oral, dosed at infection and 4 h post-infection, 7 days; for ED50: Staphylococcus aureus, po, 168 h, read-out: ED50 (50 percent effective dose); for ED50 (50 percent effective dose): 10080 min
Procedure: as §1

[3] = test system: Staphylococcus epidermidis; assay: In vitro broth dilution minimal inhibitory concentration (standard microdilution method); format: cell-based; conditions: Mueller-Hinton broth, 24-hour; for MIC: 24 h, read-out: Microdilution Broth MIC
Escherichia coli [4] = assay: as above; format: cell-based; conditions: Escherichia coli, Mueller-Hinton broth, 24-hour; for MIC: read-out: Microdilution Broth MIC
Staphylococcus aureus [5] = assay: In vivo efficacy of compounds administered subcutaneously in mouse intraperitoneal infections; conditions: mouse i.p. Staphylococcus aureus infection, subcutaneous, dosed at infection and 4 h post-infection, 7 days; for ED50: sc, 168 h, read-out: ED50 (50 percent effective dose); for ED50 (50 percent effective dose): 10080 min
Procedure: as §1

| MIC [3] [µg/mL] | MIC (Escherichia coli [4]) [µg/mL] | Microdilution Broth MIC [3] [µg/mL] | Microdilution Broth MIC (Escherichia coli [4]) [µg/mL] | Structure (SMILES) | ED50 (Escherichia coli [1]) [mg/kg] | ED50 (Staphylococcus aureus [2]) [mg/kg] | ED50 (50 percent effective dose) (Escherichia coli [1]) [mg/kg] | ED50 (50 percent effective dose) (Staphylococcus aureus [2]) [mg/kg] | ED50 (Staphylococcus aureus [5]) [mg/kg] | ED50 (50 percent effective dose) (Staphylococcus aureus [5]) [mg/kg] |
| --- | --- | --- | --- | --- | --- | --- | --- | --- | --- | --- |
| 6.3 (≈ 21.3 µM) | > 100 |  |  | CS(=O)(=O)c1ccc(N2CC(CN=[N+]=[N-])OC2=O)cc1 (single isomer, unassigned) [Example 2, (l)-5-Azidomethyl-3-[4-(methylsulfonyl)phenyl]-2-oxazolidinone] | 52.6 | 7.3 |  |  |  |  |
| 25 (≈ 84.1 µM) | > 100 |  |  | [N-]=[N+]=NCC1CN(c2ccc(S(N)(=O)=O)cc2)C(=O)O1 (single isomer, unassigned) [Example 3, (l)-4-[5-(Azidomethyl)-2-oxooxazolidin-3-yl]benzenesulfonamide] | > 120 | 29.3 |  |  |  |  |
| 6.3 (≈ 21.1 µM) | 100 (≈ 335 µM) |  |  | CS(=O)(=O)c1ccc(N2CC(CNC=O)OC2=O)cc1 (single isomer, unassigned) [Example 21, (l)-N-[3-[4-(Methylsulfonyl)phenyl]-2-oxooxazolidin-5-ylmethyl]formamide] | 30.3 | 7.3 |  |  |  |  |
| 3.2 (≈ 10.2 µM) | 25 (≈ 80 µM) |  |  | CC(=O)NCC1CN(c2ccc(S(C)(=O)=O)cc2)C(=O)O1 (single isomer, unassigned) [Example 23, (l)-N-[3-[4-(Methylsulfonyl)phenyl]-2-oxooxazolidin-5-ylmethyl]acetamide] | 14 | 3.3 |  |  |  |  |
| 3.1 (≈ 11.2 µM) | > 200 |  |  | CC(=O)NCC1CN(c2ccc(C(C)C)cc2)C(=O)O1 (single isomer, unassigned) [Example 51, (l)-N-[3-(4-isopropylphenyl)-2-oxooxazolidin-5-ylmethyl]acetamide] | 62.9 | 6.4 |  |  |  |  |
| 18.8 (≈ 60.2 µM) | > 200 |  |  | COC(=O)NCC1CN(c2ccc([S+](C)[O-])cc2)C(=O)O1 (single isomer, unassigned) [Example 121, (l)-N-[3-[4-(Methylsulfinyl)phenyl]-2-oxooxazolidin-5-ylmethyl]carbamic acid, methyl ester] | 55.9 | 2.5 |  |  |  |  |
| 6.3 (≈ 19.3 µM) | 50 (≈ 153 µM) |  |  | CCC(=O)NCC1CN(c2ccc(S(C)(=O)=O)cc2)C(=O)O1 (stereo not drawn) [Example 27] | 37 | 8 |  |  |  |  |
|  |  | 6.3 | > 200.0 | COC(=O)NCC1CN(c2ccc(C(C)C)cc2)C(=O)O1 (stereo not drawn) [Example 52] |  |  | > 120.0 | 4.9 |  |  |
| 100 (≈ 386 µM) | > 200 |  |  | CC(=O)NCC1CN(c2ccc(C#N)cc2)C(=O)O1 (stereo not drawn) [Example 59] | 88 | 4.3 |  |  |  |  |
| 50 (≈ 180 µM) | > 200 |  |  | CC(=O)NCC1CN(c2ccc3c(c2)OCO3)C(=O)O1 (stereo not drawn) [Example 62] | > 120 | 19.1 |  |  |  |  |
| 9.4 (≈ 29 µM) | 150 (≈ 462 µM) |  |  | C=CC(=O)NCC1CN(c2ccc(S(C)(=O)=O)cc2)C(=O)O1 (stereo not drawn) [Example 69] | 65.7 | 11.9 |  |  |  |  |
| 50 (≈ 163 µM) | > 200 |  |  | CSc1ccc(N2CC(CNC(=O)C3CC3)OC2=O)cc1 (stereo not drawn) [Example 71] |  | > 120 |  |  | 69.3 |  |
| 25 (≈ 73.9 µM) | 200 (≈ 591 µM) |  |  | CS(=O)(=O)c1ccc(N2CC(CNC(=O)C3CC3)OC2=O)cc1 (stereo not drawn) [Example 72] |  | > 120 |  |  | 15.2 |  |
| 200 (≈ 806 µM) | > 200 |  |  | CC(=O)NCC1CN(c2ccc(C)cc2)C(=O)O1 (stereo not drawn) [Example 79] |  | 99.8 |  |  | 85.1 |  |
| 25 (≈ 81.6 µM) | > 200 |  |  | CCCCc1ccc(N2CC(CNC(=O)OC)OC2=O)cc1 (stereo not drawn) [Example 80] |  | 64 |  |  | 42.3 |  |
| 25 (≈ 86.1 µM) | > 200 |  |  | CC(=O)Cc1ccc(N2CC(CNC(C)=O)OC2=O)cc1 (stereo not drawn) [Example 99] |  | 77.4 |  |  | 20.1 |  |
| 12.5 (≈ 42.8 µM) | > 200 |  |  | CC(=O)NCC1CN(c2ccc(CC(C)O)cc2)C(=O)O1 (stereo not drawn) [Example 100] |  | 19.5 |  |  | 10.5 |  |

| MIC [3] [µg/mL] | MIC (Escherichia coli [4]) [µg/mL] | Microdilution Broth MIC [3] [µg/mL] | Microdilution Broth MIC (Escherichia coli [4]) [µg/mL] | Structure (SMILES) | ED50 (Escherichia coli [1]) [mg/kg] | ED50 (Staphylococcus aureus [2]) [mg/kg] | ED50 (50 percent effective dose) (Escherichia coli [1]) [mg/kg] | ED50 (50 percent effective dose) (Staphylococcus aureus [2]) [mg/kg] | ED50 (Staphylococcus aureus [5]) [mg/kg] | ED50 (50 percent effective dose) (Staphylococcus aureus [5]) [mg/kg] |
| --- | --- | --- | --- | --- | --- | --- | --- | --- | --- | --- |
| 4 (≈ 15.4 µM) | 128 (≈ 492 µM) |  |  | C=Cc1ccc(N2CC(CNC(C)=O)OC2=O)cc1 (stereo not drawn) [Example 101] |  | 10.6 |  |  | 4.8 |  |
| 16 (≈ 51.9 µM) | > 128 |  |  | CC(=O)NCC1CN(c2ccc(C(C)(O)CO)cc2)C(=O)O1 (stereo not drawn) [Example 102] |  | 24 |  |  | 9 |  |
| 1 (≈ 3.44 µM) | > 128 |  |  | CC(=O)NCC1CN(c2ccc(C(C)(C)C)cc2)C(=O)O1 (stereo not drawn) [Example 105] |  | 10.8 |  |  | 13.8 |  |
| 2 (≈ 6.84 µM) | > 128 |  |  | CC(=O)NCC1CN(c2ccc(CCCO)cc2)C(=O)O1 (stereo not drawn) [Example 107] |  | > 60 |  |  | 18.6 |  |
| 2 (≈ 5.68 µM) | > 128 |  |  | CC(=O)NCC1CN(c2ccc(C(F)(F)C(F)(F)F)cc2)C(=O)O1 (stereo not drawn) [Example 108] |  | 8.4 |  |  | 20.4 |  |
| 12.5 (≈ 33.5 µM) | > 200 |  |  | COC(=O)NCC1CN(c2ccc(S(=O)(=O)N(C)OC)cc2)C(=O)O1 (stereo not drawn) [Example 116] |  | 25.9 |  |  | 14.9 |  |
| > 200 | > 200 |  |  | COC(=O)N(C)CC1CN(c2ccc(S(C)(=O)=O)cc2)C(=O)O1 (stereo not drawn) [Example 128] |  | 62 |  |  | 33.6 |  |
| 4 (≈ 7.8 µM) | 128 (≈ 250 µM) |  |  | CC(=O)NCC1CN(c2ccc(C(=O)C(Br)(Br)Br)cc2)C(=O)O1 (stereo not drawn) [Example 140] |  | 6.6 |  |  | 13.2 |  |
| 8 (≈ 23.2 µM) | > 128 |  |  | CC(=O)NCC1CN(c2ccc(C(=O)C3CCCCC3)cc2)C(=O)O1 (stereo not drawn) [Example 141] |  | 40.2 |  |  | 20.8 |  |
| 16 (≈ 52.6 µM) | > 128 |  |  | CCc1cc(N2CC(CNC(C)=O)OC2=O)ccc1C(C)=O (stereo not drawn) [Example 143] |  | 20.8 |  |  | 11.9 |  |
|  |  | 25.0 | > 200.0 | CC(=O)NCC1CN(c2ccc([S+]([O-])CCO)cc2)C(=O)O1 (stereo not drawn) [Example 168, (l)-N-[3-[4-(2-Hydroxyethylsulfinyl)phenyl]-2-oxo-oxazolidin-5-ylmethyl]acetamide] |  |  |  | 49.8 |  | 24.3 |
|  |  | 50.0 | 200.0 | CC(=O)NCC1CN(c2ccc([S+]([O-])CCO)cc2)C(=O)O1 (stereo not drawn) [Example 169, (l)-N-[3-[4-(2-Hydroxyethylsulfinyl)phenyl]-2-oxo-oxazolidin-5-ylmethyl]acetamide] |  |  |  | 99.1 |  | 12.1 |
| 32 (≈ 110 µM) | > 128 |  |  | CC(=O)c1ccc(N2CC(CNC(=O)CN)OC2=O)cc1 (stereo not drawn) [Example 176] |  | 30.9 |  |  | 11.2 |  |
| 16 (≈ 48.4 µM) | > 128 |  |  | CC(=O)c1ccc(N2CC(CNC(=O)C(F)(F)F)OC2=O)cc1 (stereo not drawn) [Example 178] |  | 31.6 |  |  | 31.6 |  |
| 4 (≈ 13.5 µM) | 128 (≈ 432 µM) |  |  | CC(=O)NC[C@H]1CN(c2ccc([S@@+](C)[O-])cc2)C(=O)O1 [Example 180] |  | 2.5 |  |  | 0.8 |  |
| 16 (≈ 54 µM) | > 128 |  |  | CC(=O)NC[C@H]1CN(c2ccc([S@+](C)[O-])cc2)C(=O)O1 [Example 181, (S,S)-N-[3-[4-(Methylsulfinyl)phenyl]-2-oxo-5-oxazolidinylmethyl]acetamide] |  | 2.8 |  |  | 1 |  |
